Test results taken from US7141397B2, “Method of preparing a guanosine-group compound and an intermediate thereof” (Yuki Gosei Kogyo Co., Ltd., priority 2000, dated 2006).

Assay: Solubility of guanine and glyoxal-guanine in water (HPLC of liquid layer)
Type: physicochemical
Conditions: for solubility to water: general statement, no temperature given; for Solubility at each temperature: water, stirred 1 hour
Procedure: An excess amount of each compound was suspended in water, stirred for 1 hour at each temperature and left for a while. The liquid layer was analyzed with HPLC equipped with a UV detector, under the conditions described below.
Conditions of the HPLC analysis:
Column: Superiorex ODS (manufactured by Shiseido)
Eluent: 0.1 M ammonium dihydrogenphosphate solution: methanol=97:3 (v/v)

Structure (SMILES) | solubility to water | Solubility at each temperature (30° C.) | Solubility at each temperature (40° C.) | Solubility at each temperature (50° C.) [mg/kg] | Solubility at each temperature (60° C.) [mg/kg]
O=c1c2nc[nH]c2nc2n1C(O)C(O)N2 (stereo not shown) [Glyoxal-guanine, 6,7-dihydro-6,7-dihydroxyimidazo[1,2-a]purine-9(3H)-one] | soluble to water | 200 mg/kg | 275 mg/kg | 330 | 440
Nc1nc2nc[nH]c2c(=O)[nH]1 [Guanine, guanine] | does not exceed a few ppm | ≤ 2 or mg/kg | ≤ 2 or mg/kg | 2 | 2
